Structures can show the parent of a compound that is named as a salt.
Columns and labels:
5-HT1A receptor = biological target: T1, 5-HT1A receptor (Homo sapiens, UniProt P08908); test: 5-HT1A receptor affinity: displacement of [3H] 8-OH-DPAT; type: binding; set-up: expressed in transfected cells; conditions: read-out: 5-HT1A Receptor Affinity, % @ 1 μM
T1 sequence (P08908 1-422): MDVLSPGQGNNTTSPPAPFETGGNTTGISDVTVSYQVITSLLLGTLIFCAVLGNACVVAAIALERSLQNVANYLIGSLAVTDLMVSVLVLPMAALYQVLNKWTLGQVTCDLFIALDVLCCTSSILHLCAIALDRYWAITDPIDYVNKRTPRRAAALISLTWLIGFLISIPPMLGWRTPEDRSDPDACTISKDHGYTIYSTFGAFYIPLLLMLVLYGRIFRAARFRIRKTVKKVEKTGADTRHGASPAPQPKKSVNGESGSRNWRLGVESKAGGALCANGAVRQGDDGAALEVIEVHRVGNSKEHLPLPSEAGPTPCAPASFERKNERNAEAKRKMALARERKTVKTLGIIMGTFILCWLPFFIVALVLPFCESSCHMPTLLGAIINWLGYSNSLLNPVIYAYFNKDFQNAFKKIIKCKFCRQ

serotonin transporter = biological target: T2, serotonin transporter (Rattus norvegicus, UniProt P31652); test: 5-HT transporter affinity: displacement of 3H-paroxetine from male rat cortical membranes; type: binding; conditions: displacement of 3H-paroxetine; male rat cortical membranes; read-out: 5-HT Transporter Affinity Ki
T2 construct: displace ^3H-paroxetine from male rat cortical membranes; from tissue; host or cells: male rat cortical membranes
T2 sequence (P31652 whole entry): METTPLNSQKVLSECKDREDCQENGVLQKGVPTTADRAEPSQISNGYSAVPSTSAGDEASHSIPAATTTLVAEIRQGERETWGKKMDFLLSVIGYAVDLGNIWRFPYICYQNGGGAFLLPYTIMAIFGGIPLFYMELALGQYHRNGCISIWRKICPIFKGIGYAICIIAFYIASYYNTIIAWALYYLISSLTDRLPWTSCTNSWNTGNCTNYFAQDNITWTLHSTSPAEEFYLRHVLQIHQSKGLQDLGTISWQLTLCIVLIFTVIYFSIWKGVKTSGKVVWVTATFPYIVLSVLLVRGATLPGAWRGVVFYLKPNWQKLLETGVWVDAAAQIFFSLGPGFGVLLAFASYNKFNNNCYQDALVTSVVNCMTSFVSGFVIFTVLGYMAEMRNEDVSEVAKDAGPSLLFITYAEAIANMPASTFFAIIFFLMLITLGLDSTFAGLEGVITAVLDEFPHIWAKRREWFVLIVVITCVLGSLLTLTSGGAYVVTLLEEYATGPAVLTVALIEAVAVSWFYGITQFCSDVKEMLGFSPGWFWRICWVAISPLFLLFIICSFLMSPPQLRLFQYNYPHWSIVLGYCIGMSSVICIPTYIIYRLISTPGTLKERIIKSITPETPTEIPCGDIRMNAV

Compound COc1cccc2c(CCCN(CC3CC3)C3COc4c(F)ccc(C(N)=O)c4C3)coc12 (stereo not shown) (as salt: hydrochloride) [Compound 165, 3-{(cyclopropylmethyl)[3-(7-methoxy-1-benzofuran-3-yl)propyl]amino}-8-fluorochromane-5-carboxamide] has a melting point of 125 to 132 °C.
With CCCCN(CCCc1coc2c(OC)cccc12)C1COc2c(F)ccc(C(N)=O)c2C1 (stereo not shown) (as salt: hydrochloride) [Compound 166, 3-{butyl[3-(7-methoxy-1-benzofuran-3-yl)propyl]amino}-8-fluorochromane-5-carboxamide] the melting point was 110 to 117 °C (dec.).
CCN(CCCCc1coc2c(OC)cccc12)C1COc2c(F)ccc(C(N)=O)c2C1 (stereo not shown) (as salt: hydrochloride) [Compound 168, 3-{ethyl[4-(7-methoxy-1-benzofuran-3-yl)butyl]amino}-8-fluorochromane-5-carboxamide] showed a melting point of 112 to 118 °C.
With CCCN(CCCCc1coc2c(OC)cccc12)C1COc2c(F)ccc(C(N)=O)c2C1 (stereo not shown) (as salt: hydrochloride) [Compound 169, 8-fluoro-3-[[4-(7-methoxy-1-benzofuran-3-yl)butyl](propyl)amino]chromane-5-carboxamide] the melting point was 99 to 110 °C (dec.).
In the case of COc1cccc2c(CCCCN(CC3CC3)C3COc4c(F)ccc(C(N)=O)c4C3)coc12 (stereo not shown) (as salt: hydrochloride) [Compound 170, 3-{(cyclopropylmethyl)[4-(7-methoxy-1-benzofuran-3-yl)butyl]amino}-8-fluorochromane-5-carboxamide], the melting point is reported as 114 to 120 °C.
In the case of COc1cccc2c(CCCCN(C3CCC3)C3COc4c(F)ccc(C(N)=O)c4C3)coc12 (stereo not shown) (as salt: hydrochloride) [Compound 171, 3-{cyclobutyl[4-(7-methoxy-1-benzofuran-3-yl)butyl]amino}-8-fluorochromane-5-carboxamide], the melting point is reported as 122 to 127 °C (dec.).
In the case of CCCN(CCCCc1coc2c(OC)cccc12)[C@H]1COc2c(F)ccc(C(N)=O)c2C1 (as salt: hydrochloride) [Compound 172, (3R)-8-fluoro-3-[[4-(7-methoxy-1-benzofuran-3-yl)butyl](propyl)amino]chromane-5-carboxamide], the melting point is reported as 103 to 111 °C.
In the case of NC(=O)c1ccc(F)c2c1CC(NCCCn1ccc3ccccc31)CO2 (stereo not shown) (as salt: hydrochloride) [Compound 184, 8-Fluoro-3-{[3-(1H-indol-1-yl)propyl]amino}chromane-5-carboxamide], the melting point is reported as 155 to 156 °C.
In the case of NC(=O)c1ccc(F)c2c1CC(NCCCCn1ccc3cccc(F)c31)CO2 (stereo not shown) (as salt: hydrochloride) [Compound 188, 8-Fluoro-3-{[4-(7-fluoro-1H-indol-1-yl)butyl]amino}chromane-5-carboxamide], the melting point is reported as 166 to 168 °C.
With COc1cccc2c1CC(N[C@H]1CC[C@@H](c3c[nH]c4ccc(F)cc43)CC1)CO2 (relative stereo) (as salt: hydrochloride) [Compound 181a, cis-N-[4-(5-fluoro-1H-indol-3-yl)cyclohexyl]-5-methoxychroman-3-amine] the melting point was 156.5 °C (dec.).
For COc1cccc2c1CC(N[C@H]1CC[C@H](c3c[nH]c4ccc(F)cc43)CC1)CO2 (relative stereo) (as salt: hydrochloride) [Compound 181b, trans-N-[4-(5-fluoro-1H-indol-3-yl)cyclohexyl]-5-methoxychroman-3-amine], the melting point was 265 °C (dec.).
For CCCN(C1COc2cccc(OC)c2C1)[C@H]1CC[C@@H](c2c[nH]c3ccc(F)cc32)CC1 (relative stereo) (as salt: hydrochloride) [Compound 182, cis-N-[4-(5-fluoro-1H-indol-3-yl)cyclohexyl]-5-methoxy-N-propylchroman-3-amine], the melting point was 148 °C (dec.).
With CCCN(C1COc2cccc(OC)c2C1)[C@H]1CC[C@H](c2c[nH]c3ccc(F)cc32)CC1 (relative stereo) (as salt: hydrochloride) [Compound 183, trans-N-[4-(5-fluoro-1H-indol-3-yl)cyclohexyl]-5-methoxy-N-propylchroman-3-amine] the melting point was 159 °C (dec.).
For CC(CCc1c[nH]c2c(F)cc(F)cc12)N(CC1CC1)C1COc2c(F)ccc(C(N)=O)c2C1 (single isomer, unassigned) (as salt: HCl) [Compound 154a, 3-{(cyclopropylmethyl)[3-(5,7-difluoro-1H-indol-3-yl)-1-methylpropyl]amino}-8-fluorochromane-5-carboxamide], the melting point was 160 to 165 °C.
For NC(=O)c1ccc(F)c2c1CC(NCCCc1c[nH]c3ccc(F)cc13)CO2 (single isomer, unassigned; (+)) (as salt: hydrochloride) [Compound 1a, (+)-8-fluoro-3-{[3-(5-fluoro-1H-indol-3-yl)propyl]amino}chromane-5-carboxamide], the melting point was 89 °C (dec.).
In the case of NC(=O)c1ccc(F)c2c1CC(N(CCCc1c[nH]c3ccc(F)cc13)C1CCC1)CO2 (single isomer, unassigned; (+)) (as salt: hydrochloride) [Compound 4a, (+)-3-{cyclobutyl[3-(5-fluoro-1H-indol-3-yl)propyl]amino}-8-fluorochromane-5-carboxamide], the melting point is reported as 129 °C (dec.).
In the case of CCCN(C(C)CCCc1c[nH]c2ccc(F)cc12)C1COc2c(F)ccc(C(N)=O)c2C1 (single isomer, unassigned; (+)) (as salt: hydrochloride) [Compound 14a, (+)-8-fluoro-3-[[4-(5-fluoro-1H-indol-3-yl)-1-methylbutyl](propyl)amino]chromane-5-carboxamide], the melting point is reported as 148 to 150 °C.
In the case of CCN(C(C)CCc1c[nH]c2ccc(F)cc12)C1COc2c(F)ccc(C(N)=O)c2C1 (single isomer, unassigned; (+)) (as salt: hydrochloride) [Compound 16b, (+)-3-{ethyl[3-(5-fluoro-1H-indol-3-yl)-1-methylpropyl]amino}-8-fluorochromane-5-carboxamide], the melting point is reported as 135 °C (dec.).
In the case of CCCN(CCCc1c[nH]c2ccc(F)cc12)C1CCc2c(F)ccc(OC)c2C1 (single isomer, unassigned; (+)) (as salt: hydrochloride) [Compound 51a, (+)-5-fluoro-N-[3-(5-fluoro-1H-indol-3-yl)propyl]-8-methoxy-N-propyl-1,2,3,4-tetrahydro-2-naphthalenamine], the melting point is reported as 117 °C (dec.).
For NC(=O)c1ccc(F)c2c1CC(NCCCc1c[nH]c3ccc(F)cc13)CO2 (single isomer, unassigned; (-)) (as salt: hydrochloride) [Compound 1b, (−)-8-fluoro-3-{[3-(5-fluoro-1H-indol-3-yl)propyl]amino}chromane-5-carboxamide], the melting point was 87 °C (dec.).
With CCCN(CCCc1c[nH]c2ccc(F)cc12)C1COc2c(F)ccc(C(N)=O)c2C1 (single isomer, unassigned; (-)) (as salt: hydrochloride) [Compound 2a, (−)-8-fluoro-3-[[3-(5-fluoro-1H-indol-3-yl)propyl](propyl)amino]-3,4-dihydro-2H-chromene-5-carboxamide] the melting point was 126 °C (dec.).
In the case of NC(=O)c1ccc(F)c2c1CC(N(CCCc1c[nH]c3ccc(F)cc13)CC1CC1)CO2 (single isomer, unassigned; (-)) (as salt: hydrochloride) [Compound 5a, (−)-3-{(cyclopropylmethyl)[3-(5-fluoro-1H-indol-3-yl)propyl]amino}-8-fluorochromane-5-carboxamide], the melting point is reported as 123 °C (dec.).
With CCCN(C(C)CCCc1c[nH]c2ccc(F)cc12)C1COc2c(F)ccc(C(N)=O)c2C1 (single isomer, unassigned; (-)) (as salt: hydrochloride) [Compound 14b, (−)-8-fluoro-3-[[4-(5-fluoro-1H-indol-3-yl)-1-methylbutyl](propyl)amino]chromane-5-carboxamide] the melting point was 147 to 150 °C.
With CC(CCc1c[nH]c2ccc(F)cc12)N(CC1CC1)C1COc2c(F)ccc(C(N)=O)c2C1 (single isomer, unassigned; (-)) (as salt: hydrochloride) [Compound 15a, (−)-3-{(cyclopropylmethyl)[3-(5-fluoro-1H-indol-3-yl)-1-methylpropyl]amino}-8-fluorochromane-5-carboxamide] the melting point was 135 °C (dec.).
In the case of CCN(C(C)CCc1c[nH]c2ccc(F)cc12)C1COc2c(F)ccc(C(N)=O)c2C1 (single isomer, unassigned; (-)) (as salt: hydrochloride) [Compound 16a, (−)-3-{ethyl[3-(5-fluoro-1H-indol-3-yl)-1-methylpropyl]amino}-8-fluorochromane-5-carboxamide], the melting point is reported as 132 °C (dec.).
O=C(O)c1cccc2c1CC(N(CCCc1c[nH]c3c(F)cc(F)cc13)C1CCC1)CO2 (stereo not shown) [Compound 137, 3-{cyclobutyl[3-(5,7-difluoro-1H-indol-3-yl)propyl]amino}chromane-5-carboxylic acid] showed an inhibition at 1 µM (5-HT1A receptor) of 0%, a melting point of 130 to 131 °C and a Ki (serotonin transporter) of 421 nM.
COc1cccc2c(CCNC3COc4c(F)ccc(C(N)=O)c4C3)coc12 (stereo not shown) [Compound 156, 8-fluoro-3-{[2-(7-methoxy-1-benzofuran-3-yl)ethyl]amino}chromane-5-carboxamide] showed an inhibition at 1 µM (5-HT1A receptor) of 28%, a melting point of 172 to 174 °C and a Ki (serotonin transporter) of 381 nM.

Reference: patent publication US20050032873A1, “3-Amino chroman and 2-amino tetralin derivatives” (Wyeth, priority 2003, published 2005)
